Test results: PubChem BioAssay AID328 (DTP/NCI, 2004)
Where “and” joins values, the source holds several entries; their conditions need not be identical. Equal values may be shown once. Toxic doses and inconclusive results are not listed.

Tested on: BDF1 mice, P388 leukemia ip, median survival T/C
Experiment: NCI In Vivo Anticancer Drug Screen. Data for tumor model P388 Leukemia (intraperitoneal) in B6D2F1 (BDF1) mice
Settings: endpoint: median survival time, higher = longer survival
How it was run: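 Steps: implant the tumour, treat one group with compound and another with vehicle, record survival, then divide treated by control.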

[1] = dose: 25.0 mg/kg/injection, schedule: Q01DX009 (ip), vehicle: saline
[2] = dose: 50.0 mg/kg/injection, schedule: Q01DX009 (ip), vehicle: saline
[3] = dose: 200.0 mg/kg/injection, schedule: Q01DX009 (ip), vehicle: saline
[4] = dose: 0.5 mg/kg/injection, schedule: Q01DX009 (ip), vehicle: saline with Tween-80
[5] = dose: 1.0 mg/kg/injection, schedule: Q01DX009 (ip), vehicle: saline with Tween-80
[6] = dose: 100.0 mg/kg/injection, schedule: Q01DX009 (ip), vehicle: Klucel (hydroxypropylcellulose) (HPC)
[7] = dose: 200.0 mg/kg/injection, schedule: Q01DX009 (ip), vehicle: Klucel (hydroxypropylcellulose) (HPC)
[8] = dose: 100.0 mg/kg/injection, schedule: Q01DX009 (ip), vehicle: saline with Tween-80
[9] = dose: 200.0 mg/kg/injection, schedule: Q01DX009 (ip), vehicle: saline with Tween-80
[10] = dose: 100.0 mg/kg/injection, schedule: Q04DX003 (ip), vehicle: saline with Tween-80
[11] = dose: 200.0 mg/kg/injection, schedule: Q04DX003 (ip), vehicle: saline with Tween-80
[12] = dose: 400.0 mg/kg/injection, schedule: Q04DX003 (ip), vehicle: saline with Tween-80
[13] = dose: 12.5 mg/kg/injection, schedule: Q04DX003 (ip), vehicle: saline with Tween-80
[14] = dose: 25.0 mg/kg/injection, schedule: Q04DX003 (ip), vehicle: saline with Tween-80
[15] = dose: 50.0 mg/kg/injection, schedule: Q04DX003 (ip), vehicle: saline with Tween-80
[16] = dose: 100.0 mg/kg/injection, schedule: Q01DX009 (ip), vehicle: saline
[17] = dose: 100.0 mg/kg/injection, schedule: Q04DX003 (ip), vehicle: saline
[18] = dose: 200.0 mg/kg/injection, schedule: Q04DX003 (ip), vehicle: saline
[19] = dose: 400.0 mg/kg/injection, schedule: Q01DX009 (ip), vehicle: saline
[20] = dose: 400.0 mg/kg/injection, schedule: Q04DX003 (ip), vehicle: saline
[21] = dose: 25.0 mg/kg/injection, schedule: Q01DX009 (ip), vehicle: saline with Tween-80
[22] = dose: 50.0 mg/kg/injection, schedule: Q01DX009 (ip), vehicle: saline with Tween-80
[23] = dose: 6.25 mg/kg/injection, schedule: Q01DX009 (ip), vehicle: saline
[24] = dose: 50.0 mg/kg/injection, schedule: Q04DX003 (ip), vehicle: saline

Structure (SMILES): CC1CN1P(=O)(OCCC#N)N1CC1C (stereo not drawn)
- T/C [1]: 115 % of control
- T/C [2]: 97 % of control
- T/C (dose: 100.0 mg/kg/injection, schedule: Q04DX003 (ip), vehicle: other): 163 % of control
- T/C (dose: 150.0 mg/kg/injection, schedule: Q01DX009 (ip), vehicle: other): 170 % of control
- T/C [3]: 160 % of control and 203 % of control
- T/C (dose: 200.0 mg/kg/injection, schedule: Q04DX003 (ip), vehicle: other): 227 % of control

Structure (SMILES): C=C1C(O)C2(O)OCC34C(CC5C(C)=CC(=O)C(OC)C5(C)C23)OC(=O)C(OC(=O)C(C)CC)C14 (stereo not drawn)
- T/C (dose: 0.06 mg/kg/injection, schedule: Q01DX009 (ip), vehicle: saline with Tween-80): 98 % of control
- T/C (dose: 0.12 mg/kg/injection, schedule: Q01DX009 (ip), vehicle: saline with Tween-80): 112 % of control
- T/C (dose: 0.25 mg/kg/injection, schedule: Q01DX009 (ip), vehicle: saline with Tween-80): 105 % of control
- T/C [4]: 110 % of control
- T/C [5]: 120 % of control
- T/C (dose: 2.0 mg/kg/injection, schedule: Q01DX009 (ip), vehicle: saline with Tween-80): 115 % of control

Structure (SMILES): CC(C)(C)C(=O)CC(=O)C(F)(F)C(F)(F)C(F)(F)F.CC(C)(C)C(=O)CC(=O)C(F)(F)C(F)(F)C(F)(F)F.CC(C)(C)C(=O)CC(=O)C(F)(F)C(F)(F)C(F)(F)F.[Fe]
- T/C [6]: 97 % of control
- T/C [7]: 114 % of control
- T/C (dose: 400.0 mg/kg/injection, schedule: Q01DX009 (ip), vehicle: Klucel (hydroxypropylcellulose) (HPC)): 97 % of control

Structure (SMILES): c1c2c(cc3c1OCO3)CC1CCCN1CC2 (stereo not drawn)
- T/C [4]: 108 % of control
- T/C [5]: 100 % of control
- T/C (dose: 4.0 mg/kg/injection, schedule: Q01DX009 (ip), vehicle: saline with Tween-80): 108 % of control
- T/C (dose: 8.0 mg/kg/injection, schedule: Q01DX009 (ip), vehicle: saline with Tween-80): 108 % of control

Structure (SMILES): COc1ccc(-c2cc(C(=O)O)c3cc4ccccc4cc3n2)cc1Br
- T/C [8]: 100 % of control
- T/C [9]: 100 % of control
- T/C (dose: 400.0 mg/kg/injection, schedule: Q01DX009 (ip), vehicle: saline with Tween-80): 97 % of control
- T/C (dose: 600.0 mg/kg/injection, schedule: Q01DX009 (ip), vehicle: saline with Tween-80): 109 % of control

Structure (SMILES): CC(=O)O[C@H]1CC[C@H]2[C@@H]3CCC4=CC(=O)CC[C@]4(C)[C@H]3[C@H](OC(C)=O)C[C@]12C
- T/C [10]: 100 % of control
- T/C [11]: 95 % of control
- T/C [12]: 109 % of control

Structure (SMILES): CCC1(O)CC(OC2CC(N(C)C)C(OC3CC(O)C(OC4CCC(=O)C(C)O4)C(C)O3)C(C)O2)c2c(cc3c(c2O)C(=O)c2c(O)ccc(O)c2C3=O)C1C(=O)OC (stereo not drawn)
- T/C (dose: 2.88 mg/kg/injection, schedule: Q04DX003 (ip), vehicle: water): 181 % of control
- T/C (dose: 4.8 mg/kg/injection, schedule: Q04DX003 (ip), vehicle: water): 236 % of control
- T/C (dose: 1:8.0 dilution, schedule: Q01DX009 (ip), vehicle: saline): 173 % of control
- T/C (dose: 1:64.0 dilution, schedule: Q01DX009 (ip), vehicle: saline): 116 % of control

Structure (SMILES): NC(=S)N/N=C/C=C/c1ccccc1
- T/C (dose: 100.0 mg/kg/injection, schedule: Q04DX002 (ip), vehicle: Klucel (hydroxypropylcellulose) (HPC)): 96 % of control

Structure (SMILES): COC1C(OC(N)=O)C(O)C(Oc2ccc3c(O)c(NC(=O)c4ccc(O)c(CC=C(C)C)c4)c(=O)oc3c2C)OC1(C)C (stereo not drawn)
- T/C (dose: 50.0 mg/kg/injection, schedule: Q01DX009 (ip), vehicle: Klucel (hydroxypropylcellulose) (HPC)): 121 % of control
- T/C [6]: 111 % of control
- T/C [7]: 121 % of control

Structure (SMILES): O=C(/C=C/c1ccc(Cl)c(Cl)c1)c1ccc(Cl)cc1
- T/C [13]: 100 % of control
- T/C [14]: 100 % of control
- T/C [15]: 90 % of control

Structure (SMILES): O=C1C=CC(=O)C(c2ccccc2)=C1
- T/C (dose: 12.5 mg/kg/injection, schedule: Q01DX001 (ip), vehicle: Klucel (hydroxypropylcellulose) (HPC)): 110 % of control
- T/C (dose: 25.0 mg/kg/injection, schedule: Q01DX001 (ip), vehicle: Klucel (hydroxypropylcellulose) (HPC)): 100 % of control
- T/C (dose: 50.0 mg/kg/injection, schedule: Q01DX001 (ip), vehicle: Klucel (hydroxypropylcellulose) (HPC)): 100 % of control

Structure (SMILES): CC(=O)N(C)c1ccc(/C=C2\C=Cc3ccccc32)cc1
- T/C [8]: 100 % of control
- T/C [10]: 90 % of control
- T/C [9]: 95 % of control
- T/C [11]: 100 % of control

Structure (SMILES): CCOC(=O)CSC(=S)SCC(=O)OCC
- T/C [16]: 100 % of control
- T/C [17]: 90 % of control
- T/C [3]: 105 % of control
- T/C [18]: 100 % of control
- T/C [19]: 100 % of control
- T/C [20]: 100 % of control

Structure (SMILES): CN1CCN(c2ccc([N+](=O)[O-])c3nonc23)CC1
- T/C (dose: 10.0 mg/kg/injection, schedule: Q01DX009 (ip), vehicle: saline with Tween-80): 100 % of control
- T/C (dose: 20.0 mg/kg/injection, schedule: Q01DX009 (ip), vehicle: saline with Tween-80): 100 % of control
- T/C (dose: 20.0 mg/kg/injection, schedule: Q04DX003 (ip), vehicle: saline with Tween-80): 100 % of control
- T/C (dose: 40.0 mg/kg/injection, schedule: Q01DX009 (ip), vehicle: saline with Tween-80): 99 % of control
- T/C (dose: 40.0 mg/kg/injection, schedule: Q04DX003 (ip), vehicle: saline with Tween-80): 92 % of control

Structure (SMILES): O=C(O)CCSc1ncnc2nc[nH]c12
- T/C (dose: 12.5 mg/kg/injection, schedule: Q01DX009 (ip), vehicle: saline with Tween-80): 104 % of control
- T/C [21]: 109 % of control
- T/C [22]: 109 % of control
- T/C [10]: 100 % of control
- T/C [11]: 113 % of control
- T/C [12]: 104 % of control

Structure (SMILES): Cc1cc(C)nc(NS(=O)(=O)c2ccc(NC(=O)C(Cl)(Cl)Cl)cc2)n1
- T/C (dose: 100.0 mg/kg/injection, schedule: Q01DX005 (ip), vehicle: saline with Tween-80): 93 % of control
- T/C (dose: 200.0 mg/kg/injection, schedule: Q01DX005 (ip), vehicle: saline with Tween-80): 88 % of control

Structure (SMILES): Cc1ccc(CC(N)c2nn[nH]n2)cc1 (stereo not drawn)
- T/C [21]: 97 % of control
- T/C [22]: 105 % of control
- T/C [8]: 100 % of control

Structure (SMILES): Clc1ccc(-c2cc(=[N+]3CCCCC3)ss2)cc1
- T/C (dose: 6.25 mg/kg/injection, schedule: Q04DX003 (ip), vehicle: saline with Tween-80): 92 % of control
- T/C [13]: 102 % of control and 103 % of control
- T/C [21]: 110 % of control
- T/C [14]: 93 % of control and 94 % of control
- T/C [22]: 110 % of control
- T/C [15]: 98 % of control and 99 % of control and 119 % of control
- T/C [10]: 100 % of control and 102 % of control and 114 % of control

Structure (SMILES): CCCC1CC[N-]CC1.CCCC1CC[N-]CC1.CCCC1CC[N-]CC1.CCCC1CC[N-]CC1.[Cl][Ni][Cl]
- T/C (dose: 2.0 mg/kg/injection, schedule: Q01DX009 (ip), vehicle: saline): 116 % of control
- T/C (dose: 4.0 mg/kg/injection, schedule: Q01DX009 (ip), vehicle: saline): 97 % of control
- T/C [23]: 112 % of control
- T/C (dose: 8.0 mg/kg/injection, schedule: Q01DX009 (ip), vehicle: saline): 116 % of control
- T/C [24]: 100 % of control

Structure (SMILES): [O]=[Cr](=[O])([OH])[O][Cr](=[O])(=[O])[OH]
- T/C [23]: 113 % of control
- T/C (dose: 12.5 mg/kg/injection, schedule: Q01DX009 (ip), vehicle: saline): 100 % of control

Structure (SMILES): CCOC(=O)/C=C(\C)OCC
- T/C [1]: 104 % of control
- T/C (dose: 25.0 mg/kg/injection, schedule: Q04DX003 (ip), vehicle: saline): 92 % of control and 111 % of control
- T/C [2]: 101 % of control
- T/C [24]: 94 % of control and 114 % of control
- T/C [16]: 90 % of control
- T/C [17]: 100 % of control
- T/C [3]: 109 % of control
- T/C [18]: 98 % of control and 106 % of control
- T/C [19]: 95 % of control
- T/C [20]: 97 % of control and 104 % of control

Structure (SMILES): CN=S(=O)(OCC#CCOS(=O)(=NC)c1ccc(C)cc1)c1ccc(C)cc1 (stereo not drawn)
- T/C (dose: 50.0 mg/kg/injection, schedule: Q01DX009 (ip), vehicle: saline + alcohol): 151 % of control
- T/C (dose: 100.0 mg/kg/injection, schedule: Q01DX009 (ip), vehicle: saline + alcohol): 87 % of control
- T/C [8]: 94 % of control
